In US20250136586A1, “Substituted 7-(Pyrimidin-4-yl)Quinolin-4(1H)-One Compounds as Cyclin Dependent Kinase Inhibitors” (BeiGene, Ltd., priority 2022, published 2025) one finds IC50 data, which are given here for 19 compounds.

One test concerns the target CDK6/Cyclin D3 (Homo sapiens (Human), UniProt Q00534). Kind of test: TR-FRET kinase inhibition assay, CDK6/Cyclin D3. The class given is biochemical. The following applies: 1 mM ATP, 0.15 μM Rb (Ser780)-biotin substrate, read-out: CDK6D3 IC50. How it is done:
(§1) Compounds disclosed herein were tested for inhibition of CDK4/Cyclin D1 or CDK6/Cyclin D3 kinase in an assay based on the time-resolved fluorescence-resonance energy transfer (TR-FRET) methodology. The assay was carried out in 384-well low volume black plates in a reaction mixture containing CDK4/Cyclin D1 or CDK6/Cyclin D3, 1 mM ATP, 0.15 μM Rb (Ser780)-biotin substrate and 0-10 μM compound in buffer containing 50 mM HEPES pH7.0, 0.02% NaN3, 0.01% BSA, 0.1 mM Orthovanadate, 50 mM MgCl2, 1 mM DTT and 0.005% Tween-20. The kinase was incubated with compound for 60 minutes at room temperature and the reaction was initiated by the addition of ATP and Rb (Ser780)-biotin substrate. After reaction at room temperature for 120 minutes, an equal volume of stop/detection solution was added according to the manufacture's instruction (Cisbio Bioassays). The stop/detection solution contained Streptavidin-XL665 and Anti-pRb (Ser780) mAb-Eu Cryptate in Detection buffer (Cisbio Bioassays). Plates were incubated at room temperature for 60 minutes, and the TR-FRET signals (ex337 nm, em665 nm/620 nm) were recorded on a PHERAstar FSX plate reader (BMG Labtech). The inhibition percentage of CDK4/Cyclin D1 or CDK6/Cyclin D3 kinase activity in presence of increasing concentrations of compounds was calculated based on the ratio of fluorescence at 665 nm to that at 620 nm. The IC50 for each compound was derived from fitting the data to the four-parameter logistic equation by Dotmatics.
A general note: Time-resolved FRET reads energy transfer from a long-lived donor to a nearby acceptor.

In the next test the target is CDK4/Cyclin D1 (Homo sapiens (Human), UniProt P11802). Kind of test: TR-FRET kinase inhibition assay, CDK4/Cyclin D1. The class given is biochemical. The following applies: 1 mM ATP, 0.15 μM Rb (Ser780)-biotin substrate, read-out: CDK4D1 IC50. How it is done: as §1, with “The assay was carried out in 384-well low volume black plates in a reaction mixture containing CDK4/Cyclin D1 or CDK6/Cyclin D3, 1 mM ATP, 0.15 μM Rb (Ser780)-biotin substrate and 0-10 μM compound in buffer containing 50 mM HEPES pH7.0, 0.02% NaN3, 0.01% BSA, 0.1 mM Orthovanadate, 50 mM MgCl2, 1 mM DTT and 0.005% Tween-20.” left out, “Plates were incubated at room temperature for 60 minutes, and the TR-FRET signals (ex337 nm, em665 nm/620 nm) were recorded on a PHERAstar FSX plate reader (BMG Labtech).” left out
Sequence of CDK4/Cyclin D1 (P11802 whole entry): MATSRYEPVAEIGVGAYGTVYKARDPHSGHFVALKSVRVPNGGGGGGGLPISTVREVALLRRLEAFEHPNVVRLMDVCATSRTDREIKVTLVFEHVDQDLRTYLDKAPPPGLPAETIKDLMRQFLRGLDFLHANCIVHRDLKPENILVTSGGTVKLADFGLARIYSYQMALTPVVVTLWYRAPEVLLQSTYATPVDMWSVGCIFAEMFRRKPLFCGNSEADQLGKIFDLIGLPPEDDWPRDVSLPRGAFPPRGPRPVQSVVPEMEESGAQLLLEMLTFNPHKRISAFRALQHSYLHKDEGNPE
Sequence of CDK4/Cyclin D1 (P24385 whole entry partner): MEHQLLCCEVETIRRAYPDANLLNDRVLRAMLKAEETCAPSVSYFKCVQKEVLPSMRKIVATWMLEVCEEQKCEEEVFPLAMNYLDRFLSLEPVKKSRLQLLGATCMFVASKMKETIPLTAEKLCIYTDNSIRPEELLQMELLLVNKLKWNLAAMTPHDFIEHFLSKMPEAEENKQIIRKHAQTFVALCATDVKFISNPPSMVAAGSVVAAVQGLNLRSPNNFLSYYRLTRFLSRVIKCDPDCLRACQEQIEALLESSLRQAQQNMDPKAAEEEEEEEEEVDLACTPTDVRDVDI

Sequence of CDK6/Cyclin D3 (Q00534 whole entry): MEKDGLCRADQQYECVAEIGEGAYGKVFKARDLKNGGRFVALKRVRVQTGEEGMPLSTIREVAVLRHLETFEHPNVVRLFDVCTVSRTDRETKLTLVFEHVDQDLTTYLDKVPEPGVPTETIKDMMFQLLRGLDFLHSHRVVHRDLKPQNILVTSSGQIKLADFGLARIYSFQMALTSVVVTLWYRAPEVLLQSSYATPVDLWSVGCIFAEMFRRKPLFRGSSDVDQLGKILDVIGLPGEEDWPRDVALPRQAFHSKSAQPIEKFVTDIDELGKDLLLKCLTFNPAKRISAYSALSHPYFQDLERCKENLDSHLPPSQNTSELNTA
Sequence of CDK6/Cyclin D3 (P30281 whole entry partner): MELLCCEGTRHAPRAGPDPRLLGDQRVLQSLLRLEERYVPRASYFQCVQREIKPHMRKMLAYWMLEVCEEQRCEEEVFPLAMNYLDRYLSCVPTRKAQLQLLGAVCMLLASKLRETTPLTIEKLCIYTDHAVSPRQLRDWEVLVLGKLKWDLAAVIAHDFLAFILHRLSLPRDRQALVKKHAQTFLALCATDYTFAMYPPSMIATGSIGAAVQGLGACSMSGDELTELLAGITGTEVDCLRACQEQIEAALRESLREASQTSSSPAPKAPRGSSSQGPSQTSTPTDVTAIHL

Consider `CC(C)NCc1cc(=O)c2ccc(-c3nc(N[C@@H]4CCOC[C@H]4O)ncc3F)cc2n1C(C)C` [Example 47, 7-(5-fluoro-2-(((3S,4R)-3-hydroxytetrahydro-2H-pyran-4-yl)amino)pyrimidin-4-yl)-1-isopropyl-2-((isopropylamino)methyl)quinolin-4(1H)-one], for which the half-maximal inhibitory concentration (IC50) (in general, the concentration at which inhibition is half-maximal) at CDK6/Cyclin D3 turned out to be 658 nM; at CDK4/Cyclin D1, 14 nM.

Regarding `Cc1c(CN2CC3CCC(C2)O3)n(C(C)C)c2cc(-c3nc(N[C@@H]4CCOC[C@H]4O)ncc3F)ccc2c1=O` [Example 102, 2-((8-oxa-3-azabicyclo[3.2.1]octan-3-yl)methyl)-7-(5-fluoro-2-(((3S,4R)-3-hydroxytetrahydro-2H-pyran-4-yl)amino)pyrimidin-4-yl)-1-isopropyl-3-methylquinolin-4(1H)-one], the half-maximal inhibitory concentration (IC50) worked out at 330 nM at CDK6/Cyclin D3 and 15 nM on CDK4/Cyclin D1.

Take `CC(C)n1c(CNc2ccc(F)cc2)cc(=O)c2ccc(-c3nc(N[C@@H]4CCOC[C@H]4O)ncc3F)cc21` [Example 96, 7-(5-fluoro-2-(((3S,4R)-3-hydroxytetrahydro-2H-pyran-4-yl)amino)pyrimidin-4-yl)-2-(((4-fluorophenyl)amino)methyl)-1-isopropylquinolin-4(1H)-one]: the concentration for half-maximal inhibition (IC50) at CDK6/Cyclin D3 was 273 nM; on CDK4/Cyclin D1, 21 nM.

On to `CC(C)n1c(C2CCCN2)cc(=O)c2ccc(-c3nc(N[C@@H]4CCOC[C@H]4O)ncc3F)cc21` (stereo partly drawn) [Example 388, 7-(5-fluoro-2-(((3S,4R)-3-hydroxytetrahydro-2H-pyran-4-yl)amino)pyrimidin-4-yl)-1-isopropyl-2-(pyrrolidin-2-yl)quinolin-4(1H)-one], for which the concentration for half-maximal inhibition (IC50) on CDK6/Cyclin D3 stood at 450 nM; on CDK4/Cyclin D1, 10 nM.

On to `CNC(=O)c1cc(=O)c2c(F)cc(-c3nc(N[C@@H]4CCOC[C@H]4O)ncc3F)cc2n1C(C)C` [Example 19, 5-fluoro-7-(5-fluoro-2-(((3S,4R)-3-hydroxytetrahydro-2H-pyran-4-yl)amino)pyrimidin-4-yl)-1-isopropyl-N-methyl-4-oxo-1,4-dihydroquinoline-2-carboxamide], for which the values for the IC50 on CDK6/Cyclin D3 and at CDK4/Cyclin D1 were 504 nM and 24 nM, respectively.

Regarding `CC(C)n1c(CN(C)C)cc(=O)c2ccc(-c3nc(N[C@@H]4CCOC[C@H]4O)ncc3F)cc21` [Example 20, 2-((dimethylamino)methyl)-7-(5-fluoro-2-(((3S,4R)-3-hydroxytetrahydro-2H-pyran-4-yl)amino)pyrimidin-4-yl)-1-isopropylquinolin-4(1H)-one], the IC50 on CDK6/Cyclin D3 is 510 nM; at CDK4/Cyclin D1, 15 nM.

On to `Cc1c(CN2CCCC3(CCNC3=O)C2)n(C(C)C)c2cc(-c3nc(N[C@@H]4CCOC[C@H]4O)ncc3F)ccc2c1=O` (stereo partly drawn) [Example 124, 7-((7-(5-fluoro-2-(((3S,4R)-3-hydroxytetrahydro-2H-pyran-4-yl)amino)pyrimidin-4-yl)-1-isopropyl-3-methyl-4-oxo-1,4-dihydroquinolin-2-yl)methyl)-2,7-diazaspiro[4.5]decan-1-one], for which the 50% inhibitory concentration (IC50) on CDK6/Cyclin D3 stood at 230 nM; on CDK4/Cyclin D1 it was 5 nM.

With `CC(C)n1c(CN2C3CCC2COC3)cc(=O)c2ccc(-c3nc(N[C@@H]4CCOC[C@H]4O)ncc3F)cc21` [Example 81, 2-((3-oxa-8-azabicyclo[3.2.1]octan-8-yl)methyl)-7-(5-fluoro-2-(((3S,4R)-3-hydroxytetrahydro-2H-pyran-4-yl)amino)pyrimidin-4-yl)-1-isopropylquinolin-4(1H)-one], the values for the half-inhibitory concentration (IC50) at CDK6/Cyclin D3 and at CDK4/Cyclin D1 were 483 nM and 23 nM, respectively.

As to `CC(C)n1c(CN2CCC(F)CC2)cc(=O)c2ccc(-c3nc(N[C@@H]4CCOC[C@H]4O)ncc3F)cc21` [Example 99, 7-(5-fluoro-2-(((3S,4R)-3-hydroxytetrahydro-2H-pyran-4-yl)amino)pyrimidin-4-yl)-2-((4-fluoropiperidin-1-yl)methyl)-1-isopropylquinolin-4(1H)-one], the 50% inhibitory concentration (IC50) turned out to be 561 nM at CDK6/Cyclin D3 and 17 nM at CDK4/Cyclin D1.

For the compound `Cc1c(CN2CCC(O)CC2)n(C(C)C)c2cc(-c3nc(N[C@@H]4CCOC[C@H]4O)ncc3F)ccc2c1=O` [Example 115, 7-(5-fluoro-2-(((3S,4R)-3-hydroxytetrahydro-2H-pyran-4-yl)amino)pyrimidin-4-yl)-2-((4-hydroxypiperidin-1-yl)methyl)-1-isopropyl-3-methylquinolin-4(1H)-one], the IC50 at CDK6/Cyclin D3 was 271 nM; on CDK4/Cyclin D1, 6.6 nM.

On to `CC(C)n1c(CN2CC[C@H](O)C2)cc(=O)c2ccc(-c3nc(N[C@@H]4CCOC[C@H]4O)ncc3F)cc21` [Example 86, 7-(5-fluoro-2-(((3S,4R)-3-hydroxytetrahydro-2H-pyran-4-yl)amino)pyrimidin-4-yl)-2-(((S)-3-hydroxypyrrolidin-1-yl)methyl)-1-isopropylquinolin-4(1H)-one], for which the half-maximal inhibitory concentration (IC50) stood at 777 nM on CDK6/Cyclin D3 and 21 nM on CDK4/Cyclin D1.

In the case of `CC(C)n1c(CN2CC[C@@H](F)[C@H](O)C2)cc(=O)c2ccc(-c3nc(N[C@@H]4CCOC[C@H]4O)ncc3F)cc21` [Example 84, 7-(5-fluoro-2-(((3S,4R)-3-hydroxytetrahydro-2H-pyran-4-yl)amino)pyrimidin-4-yl)-2-(((3R,4R)-4-fluoro-3-hydroxypiperidin-1-yl)methyl)-1-isopropylquinolin-4(1H)-one], the IC50 on CDK6/Cyclin D3 is 170 nM; on CDK4/Cyclin D1 it was 6.8 nM.

Take `CC(C)n1ccc(=O)c2c(Cl)cc(-c3nc(N[C@@H]4CCOC[C@H]4O)ncc3Cl)cc21` [Example 1, 5-chloro-7-(5-chloro-2-(((3S,4R)-3-hydroxytetrahydro-2H-pyran-4-yl)amino)pyrimidin-4-yl)-1-isopropylquinolin-4(1H)-one]: the half-maximal inhibitory concentration (IC50) at CDK6/Cyclin D3 stood at 808 nM; at CDK4/Cyclin D1, 101 nM.

In the case of `CC(C)n1c(CN2CCOCC2)cc(=O)c2ccc(-c3nc(N[C@@H]4CCOC[C@H]4O)ncc3F)cc21` [Example 25, 7-(5-fluoro-2-(((3S,4R)-3-hydroxytetrahydro-2H-pyran-4-yl)amino)pyrimidin-4-yl)-1-isopropyl-2-(morpholinomethyl)quinolin-4(1H)-one], the IC50 on CDK6/Cyclin D3 was 139 nM; at CDK4/Cyclin D1, 8.2 nM.

As to `CC(C)n1c(CN[C@H]2CCCOC2)cc(=O)c2ccc(-c3nc(N[C@@H]4CCOC[C@H]4O)ncc3F)cc21` [Example 60, 7-(5-fluoro-2-(((3S,4R)-3-hydroxytetrahydro-2H-pyran-4-yl)amino)pyrimidin-4-yl)-1-isopropyl-2-((((S)-tetrahydro-2H-pyran-3-yl)amino)methyl)quinolin-4(1H)-one], the IC50 on CDK6/Cyclin D3 amounted to 638 nM; at CDK4/Cyclin D1 it was 22 nM.

For `CC(C)n1c(CN2CC(F)C2)cc(=O)c2ccc(-c3nc(N[C@@H]4CCOC[C@H]4O)ncc3F)cc21` [Example 74, 7-(5-fluoro-2-(((3S,4R)-3-hydroxytetrahydro-2H-pyran-4-yl)amino)pyrimidin-4-yl)-2-((3-fluoroazetidin-1-yl)methyl)-1-isopropylquinolin-4(1H)-one], the IC50 at CDK6/Cyclin D3 was 810 nM; on CDK4/Cyclin D1, 30 nM.

Regarding `CC(C)n1ccc(=O)c2ccc(-c3nc(N[C@@H]4CCOC[C@H]4O)ncc3F)cc21` [Example 3, 7-(5-fluoro-2-(((3S,4R)-3-hydroxytetrahydro-2H-pyran-4-yl)amino)pyrimidin-4-yl)-1-isopropylquinolin-4(1H)-one], the half-inhibitory concentration (IC50) was determined as 1250 nM on CDK6/Cyclin D3 and 78 nM on CDK4/Cyclin D1.

As to `CC(=O)c1cn(C(C)C)c2cc(-c3nc(N[C@@H]4CCOC[C@H]4O)ncc3F)ccc2c1=O` [Example 4, 3-acetyl-7-(5-fluoro-2-(((3S,4R)-3-hydroxytetrahydro-2H-pyran-4-yl)amino)pyrimidin-4-yl)-1-isopropylquinolin-4(1H)-one], the results for the IC50 at CDK6/Cyclin D3 and at CDK4/Cyclin D1 were 979 nM and 251 nM, respectively.

In the case of `CC(C)n1c(CN2CCCC(F)(F)C2)cc(=O)c2ccc(-c3nc(N[C@@H]4CCOC[C@H]4O)ncc3F)cc21` [Example 70, 2-((3,3-difluoropiperidin-1-yl)methyl)-7-(5-fluoro-2-(((3S,4R)-3-hydroxytetrahydro-2H-pyran-4-yl)amino)pyrimidin-4-yl)-1-isopropylquinolin-4(1H)-one], the concentration for half-maximal inhibition (IC50) at CDK6/Cyclin D3 amounted to 396 nM; at CDK4/Cyclin D1 it was 11 nM.
